In US20170042878A1 (THE GENERAL HOSPITAL CORPORATION, priority 2012, published 2017):
Entries after “also recorded” stand apart in the source; their conditions may differ. Where two headings read alike, the source gives them in different places.

Columns and labels:
C57BL/6N mice [1] = test: Two-day forced swim test (FST) in mice; assay type: in vivo, mouse
Description: (§1) Male 10 week C57BL/6N mice (Taconic) acclimated to a holding facility one week prior to testing. A two-day FST paradigm was employed, in which mice were exposed to a 10 minute test in absence of drug, and tested the following day in presence of drug in a 6 minute test. […] All animals were drug naïve and not previously exposed to behavioral testing.
Male C57BL6N/Tac mice were purchased from Taconic Farms (Germantown, N.Y.) at 10 weeks of age. Mice were housed four mice per cage upon arrival under a 12:12 h light/dark cycle and were allowed to acclimate for approximately one week prior to behavioral procedures. Food and water were provided ad libitum. All procedures followed the National Institutes of Health Guide for the Care and Use of Laboratory Animals, and were approved by the Massachusetts Institute of Technology Animal Care and Use Committee.
Mice were tested in a two day forced swim test (FST) procedure. On day 1, all mice received mock intraperitoneal vehicle (i.p.) injections to acclimate to the injection procedure and, 30 minutes later, were placed into one of five identical cylindrical chambers (24 cm×15 cm) filled approximately halfway with warm water (26)±2° for 10 minutes with no data collected. On day 2, mice received i.p. injections 30 minutes prior to being placed in a cylinder for a 6 minute session and immobility time was scored automatically (EthoVisionXT; Noldus Information Technology; Wageningen, Netherlands) during the final 4 minutes.
For all FST behavioral experiments, the time spent immobile was the dependent variable, and data were analyzed by one-way analysis of variance (ANOVA) and Tukey post-hoc comparisons using SPSS v. 18 (IBM).

depressed patients = conditions: cited from earlier work
BDNF = conditions: ketamine sub-anesthetic doses; correlated with antidepressant effect; cited from earlier work
[2] = ketamine injection 1 mg/kg; cited from earlier work
[3] = in vivo; cited from earlier work
rabbit = conditions: drugs injected immediately after completion of daily training sessions; cited from earlier work
mice [4] = conditions: cited from earlier work
mTOR pathway = conditions: ketamine 5 and 10 mg/kg i.p., cited from earlier work
rats [5] = conditions: cited from earlier work
C57BL/6N mice [6] = test: Home cage observation of motor activation after administration, prior to FST; conditions: scopolamine 0.5 and 1.0 mg/kg i.p.
Description: as §1
A dose at the low end of this range was selected (3 mg/kg i.p.) and administered to adult male C57BL/6N mice 30 min prior to the FST.

NMDA receptor 2A = conditions: rat, in vivo; cited from earlier work
NMDA receptor 1A = conditions: rat, in vivo; cited from earlier work
mTOR signaling = conditions: cited from earlier work
rats [7] = conditions: rat, in vivo; cited from earlier work
mice [8] = conditions: scopolamine single administration 0.1 or 0.2 mg/kg i.p.; P<0.01 or P<0.001; cited from earlier work

CNC1(c2ccccc2Cl)CCCCC1=O (stereo not shown) [ketamine]
reduction in immobility versus vehicle (C57BL/6N mice [1]; ketamine 3 mg/kg i.p. 30 min prior to FST, modest and non-significant, FIG. 1): 18%
effect on FST immobility time versus vehicle (C57BL/6N mice [1]; ketamine 3 mg/kg i.p. 30 minutes prior to testing, p>0.05, FIG. 1): modest non-significant antidepressant effect; also recorded: did not significantly reduce immobility time
persistence of improvement in depression ratings (depressed patients; ketamine single intravenous infusion 0.5 mg/kg (Zarate et al., 2006)): approximately 1 week
time to significant improvement in depression ratings after administration (depressed patients; ketamine single intravenous infusion 0.5 mg/kg): 1 to 2 h
levels of BDNF in the hippocampus (BDNF): increased levels of BDNF
cerebral vasodilatation [2]: significant cerebral vasodilatation
recognition memory aspect of task performance [3]: dose-dependent impairment
effect on conditioning of the nictitating membrane response (rabbit): accelerates
antidepressant effect in the FST (mice [4]; ketamine 3 mg/kg i.p., within 30 minutes, mouse models of depression (Autry et al., 2011)): exhibited an antidepressant effect
mature dendritic spines of medial PFC pyramidal neurons and serotonin-mediated cortical neurotransmission (mTOR pathway; at 24 hours): concomitant increases
levels of pre- and postsynaptic proteins (mTOR pathway; two hours after treatment): increased levels
phosphorylation and activation of mTOR pathway molecules in synaptoneurosomes from prefrontal cortex (mTOR pathway; within one hour of treatment): increase phosphorylation and activate several molecules in the mTOR pathway
forced swim test immobility time versus vehicle (rats [5]; ketamine 10 or 15 mg/kg i.p. (Garcia et al., 2008)): reduced forced swim test immobility time
forced swim test effect (rats [5]; ketamine anesthetic dose 80 mg/kg i.p., immediately after treatment (Li et al., 2010)): no effect
forced swim test immobility time versus vehicle (rats [5]; ketamine anesthetic dose 160 mg/kg i.p., tested 3, 7, or 10 days after treatment (Yilmaz et al., 2002)): significantly decreased

CN1[C@@H]2C[C@@H](OC(=O)[C@H](CO)c3ccccc3)C[C@H]1[C@@H]1O[C@@H]12 [scopolamine]
effect on FST immobility time versus vehicle (C57BL/6N mice [1]; scopolamine 0.1 mg/kg i.p., p>0.05, FIG. 2): no change in immobility time versus vehicle; also recorded: did not significantly reduce immobility time
effect on FST immobility time versus vehicle (C57BL/6N mice [1]; scopolamine 0.5 mg/kg and 1.0 mg/kg i.p., p<0.05, likely due to non-specific motor activation, FIG. 2): substantially reduced immobility time
time after which patients report improvement (depressed patients; scopolamine 0.004 mg/kg infusion (Furey and Drevets, 2006)): approximately 24 hours
clinical outcome in depressed patients (depressed patients; scopolamine 0.004 mg/kg infusion, assessed 3 days after treatment): clinical improvement
motor activation in the home cage after administration (C57BL/6N mice [6]): noticeably hyperactive; also recorded: visibly hyperactive
effect on ketamine-induced cerebral vasodilatation [2]: blocked
incremental acquisition aspect of task performance [3]: dose x difficulty related impairment
recognition memory aspect of task performance [3]: dose x difficulty related impairment
expression of NMDA receptor 2A (NMDA receptor 2A): decrease expression
expression of NMDA receptor 1A (NMDA receptor 1A): decrease expression
effect on conditioning of the nictitating membrane response (rabbit): retards
immobility times in the forced swim test versus vehicle (mice [4]; scopolamine single administration 0.1 or 0.2 mg/kg i.p., both P<0.001): decreased immobility times
mTOR signaling (mTOR signaling): rapidly activate mTOR signaling
adult neurogenesis (rats [7]): suppress adult neurogenesis
immobility times in the tail suspension test versus vehicle (mice [8]): decreased immobility times
effect on antidepressant effects of desipramine and nomifensine in the forced swim test (rats [5]; scopolamine 0.5-1.0 mg/kg i.p., desipramine 20 or 30 mg/kg i.p., nomifensine 2.5 or 5 mg/kg i.p. (Mancinelli et al., 1988)): potentiated the antidepressant effects
